{"source": "patent US12084472B2", "about": "(Ardelyx, Inc., priority 2015, dated 2024)"}
{"target": "T1, human TGR5 (Homo sapiens, UniProt Q8TDU6)", "T1 construct": "expressed in transfected cells; host or cells: HEK293", "T1 sequence (Q8TDU6 1-330)": "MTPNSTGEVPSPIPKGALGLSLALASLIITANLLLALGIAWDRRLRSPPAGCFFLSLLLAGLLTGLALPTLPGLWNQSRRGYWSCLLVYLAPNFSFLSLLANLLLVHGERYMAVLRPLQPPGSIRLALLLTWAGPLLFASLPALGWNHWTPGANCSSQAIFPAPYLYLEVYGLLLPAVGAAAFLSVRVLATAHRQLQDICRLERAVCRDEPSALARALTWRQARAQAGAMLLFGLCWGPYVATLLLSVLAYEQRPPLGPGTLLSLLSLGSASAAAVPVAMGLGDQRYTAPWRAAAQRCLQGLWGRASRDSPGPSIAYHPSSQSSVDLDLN", "test": "Cell-based TGR5 assay (cAMP generation, HTRF)", "conditions": "HEK293 cells stably transfected with human TGR5; cAMP by HTRF; 30 minutes at 37° C.", "in_short": "(§1)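 Read-out was HTRF detection of cAMP, converted to concentration via a standard curve and fitted (3-parameter logistic) for pEC50 and maximal response. Agonist stimulation used HEK293 cells stably transfected with human TGR5, incubated 30 min at 37° C in IBMX-containing buffer at 0.05 nM to 10 μM compound.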"}
{"smiles": "CN(CCCCNC(=O)NCCOCCOCCNC(=O)NCCOCCOCCNC(=O)NCCCCN(C)S(=O)(=O)c1ccc(Cl)c(COC2(c3cnccc3-c3ccccc3OC3CC3)CC2)c1)S(=O)(=O)c1ccc(Cl)c(COC2(c3cnccc3-c3ccccc3OC3CC3)CC2)c1", "note": "[Compound I-737, 3-(4-[N-methyl[4-chloro-3-([1-[4-(2-cyclopropoxyphenyl)pyridin-3-yl]cyclopropoxy]methyl)benzene]sulfonamido]butyl)-1-[2-(2-[2-[([2-[2-(2-[[(4-[N-methyl[4-chloro-3-([1-[4-(2-cyclopropoxyphenyl)pyridin-3-yl]cyclopropoxy]methyl)benzene]sulfonamido]butyl)carbamoyl]amino]ethoxy)ethoxy]ethyl]carbamoyl)amino]ethoxy]ethoxy)ethyl]urea]", "pEC50 Human TGR5": "B (B is a pEC50 of 6 to 6.9)"}
{"target": "T1, human TGR5", "test": "Cell-based TGR5 assay (cAMP generation, HTRF)", "conditions": "HEK293 cells stably transfected with human TGR5; cAMP by HTRF; 30 minutes at 37° C.; read-out: pEC50 Human TGR5 (converted)", "in_short": "as §1", "units": {"EC50": "nM"}}
{"smiles": "NC(=O)CCN(C[C@H](O)[C@@H](O)[C@H](O)[C@H](O)CO)C(=O)CCCSc1ccc(Cl)c(COC2(c3cnccc3-c3ccccc3OC3CC3)CC2)c1", "note": "[Compound I-675, N-(2-carbamoylethyl)-4-{[4-chloro-3-({1-[4-(2-cyclopropoxyphenyl)pyridin-3-yl]cyclopropoxy}methyl)phenyl]sulfanyl}-N-[(2S,3R,4R,5R)-2,3,4,5,6-pentahydroxyhexyl]butanamide]", "EC50": "1260 to 10000"}
{"smiles": "Cc1ccc(C(C)CCCC(=O)N2CCN(CC(=O)NC[C@H](O)[C@@H](O)[C@H](O)[C@H](O)CO)CC2)cc1CNC1(c2cnccc2-c2ccccc2OC2CC2)CC1", "note": "(stereo partly drawn) [Compound I-371, 2-[4-(5-{3-[({1-[4-(2-cyclopropoxyphenyl)pyridin-3-yl]cyclopropyl}amino)methyl]-4-methylphenyl}hexanoyl)piperazin-1-yl]-N-[(2S,3R,4R,5R)-2,3,4,5,6-pentahydroxyhexyl]acetamide]", "EC50": "< 100"}
{"smiles": "O=C(NCCCCOc1ccc(Cl)c(COC2(c3cnccc3-c3ccccc3OC3CC3)CC2)c1)NC[C@H](O)[C@@H](O)[C@H](O)[C@H](O)CO", "note": "[Compound I-755, 1-(4-(4-chloro-3-((1-(4-(2-cyclopropoxyphenyl)pyridin-3-yl)cyclopropoxy)methyl)phenoxy)butyl)-3-((2S,3R,4R,5R)-2,3,4,5,6-pentahydroxyhexyl)urea]", "EC50": "126 to 1000"}
{"smiles": "FC(F)(F)c1ccc(Cl)cc1CNC1(c2cnccc2-c2ccccc2OC2CC2)CC1", "note": "[Compound I-30, N-{[5-chloro-2-(trifluoromethyl)phenyl]methyl}-1-[4-(2-cyclopropoxyphenyl)pyridin-3-yl]cyclopropan-1-amine]", "EC50": "126 to 1000"}
{"smiles": "Cc1ccc(C(CO)CCCNC(=O)NC[C@H](O)[C@@H](O)[C@H](O)[C@H](O)CO)cc1CNC1(c2cnccc2-c2ccccc2OC2CC2)CC1", "note": "(stereo partly drawn) [Compound I-387, 1-(4-{3-[({1-[4-(2-cyclopropoxyphenyl)pyridin-3-yl]cyclopropyl}amino)methyl]-4-methylphenyl}-5-hydroxypentyl)-3-[(2S,3R,4R,5R)-2,3,4,5,6-pentahydroxyhexyl]urea]", "EC50": "126 to 1000"}
{"smiles": "CN(CCCCNC(=O)N[C@@H](CO)[C@@H](O)[C@H](O)[C@H](O)CO)S(=O)(=O)c1ccc(Cl)c(CNC2(c3cnccc3-c3ccccc3OC3CC3)CC2)c1", "note": "[Compound I-472, 1-(4-{N-methyl4-chloro-3-[({1-[4-(2-cyclopropoxyphenyl)pyridin-3-yl]cyclopropyl}amino)methyl]benzenesulfonamido}butyl)-3-[(2S,3R,4S,5R)-1,3,4,5,6-pentahydroxyhexan-2-yl]urea]", "EC50": "< 100"}
{"smiles": "CN(CCCCNC(=O)NC[C@H](O)[C@@H](O)[C@H](O)[C@H](O)CO)S(=O)(=O)c1ccc(Cl)c(COC2(c3cnccc3-c3ccccc3OC3COC3)CC2)c1", "note": "[Compound I-464, 1-(4-{N-methyl4-chloro-3-[(1-{4-[2-(oxetan-3-yloxy)phenyl]pyridin-3-yl}cyclopropoxy)methyl]benzenesulfonamido}butyl)-3-[(2S,3R,4R,5R)-2,3,4,5,6-pentahydroxyhexyl]urea]", "EC50": "< 100"}
{"smiles": "O=C(O)CCNC(=O)N(CCCCc1cc(Cl)c(COC2(c3cnccc3-c3ccccc3OC3CC3)CC2)cc1Cl)C[C@H](O)[C@@H](O)[C@H](O)[C@H](O)CO", "note": "[Compound I-198, 3-[({4-[2,5-dichloro-4-({1-[4-(2-cyclopropoxyphenyl)pyridin-3-yl]cyclopropoxy}methyl)phenyl]butyl}[(2S,3R,4R,5R)-2,3,4,5,6-pentahydroxyhexyl]carbamoyl)amino]propanoic acid]", "EC50": "< 100"}
{"smiles": "O=C(NCCCC(CO)c1ccc(Cl)c(CNC2(c3cnccc3-c3ccccc3OC3CC3)CC2)c1)NC[C@H](O)[C@@H](O)[C@H](O)[C@H](O)CO", "note": "(stereo partly drawn) [Compound I-384, 1-(4-{4-chloro-3-[({1-[4-(2-cyclopropoxyphenyl)pyridin-3-yl]cyclopropyl}amino)methyl]phenyl}-5-hydroxypentyl)-3-[(2S,3R,4R,5R)-2,3,4,5,6-pentahydroxyhexyl]urea]", "EC50": "126 to 1000"}
{"smiles": "COc1cccc(Cl)c1-c1ccncc1C1(OCc2cc(Cl)ccc2Cl)CC1", "note": "[Compound I-765, 4-(2-chloro-6-methoxyphenyl)-3-(1-((2,5-dichlorobenzyl)oxy)cyclopropyl)pyridine]", "EC50": "< 100"}
{"smiles": "CC(OCc1cc(S(=O)(=O)N(CCCCNC(=O)NC[C@H](O)[C@@H](O)[C@H](O)[C@H](O)CO)C(C)C)ccc1Cl)c1cnccc1-c1ccccc1OC1CC1", "note": "(stereo partly drawn) [Compound I-753, 4-chloro-3-((1-(4-(2-cyclopropoxyphenyl)pyridin-3-yl)ethoxy)methyl)-N-isopropyl-N-(4-(3-((2S,3R,4R,5R)-2,3,4,5,6-pentahydroxyhexyl)ureido)butyl)benzenesulfonamide]", "EC50": "< 100"}
{"smiles": "O=C([C@@H](O)[C@@H](O)[C@H](O)[C@@H](O)CO)N(CCCSc1ccc(Cl)c(CNC2(c3cnccc3-c3ccccc3OC3CC3)CC2)c1)CCN1CCS(=O)(=O)CC1", "note": "[Compound I-530, (2S,3S,4R,5S)-N-[3-({4-chloro-3-[({1-[4-(2-cyclopropoxyphenyl)pyridin-3-yl]cyclopropyl)amino)methyl]phenyl}sulfanyl)propyl]-N-[2-(1,1-dioxo-1λ^6,4-thiomorpholin-4-yl)ethyl]-2,3,4,5,6-pentahydroxyhexanamide]", "EC50": "126 to 1000"}
{"smiles": "CC(CCCC(=O)N(CCCCCO)C[C@H](O)[C@@H](O)[C@H](O)[C@H](O)CO)c1ccc(Cl)c(CNC2(c3cnccc3-c3ccccc3OC3CC3)CC2)c1", "note": "(stereo partly drawn) [Compound I-261, 5-(4-chloro-3-(((1-(4-(2-cyclopropoxyphenyl)pyridin-3-yl)cyclopropyl)amino)methyl)phenyl)-N-(5-hydroxypentyl)-N-((2S,3R,4R,5R)-2,3,4,5,6-pentahydroxyhexyl) hexanamide]", "EC50": "< 100"}
{"smiles": "Cc1cc(COC2(c3cnccc3-c3ccccc3OC3COC3)CC2)c(Cl)cc1CCCCNC(=O)NC[C@H](O)[C@@H](O)[C@H](O)[C@H](O)CO", "note": "(stereo in doubt) [Compound I-190, 1-(4-{5-chloro-2-methyl-4-[(1-{4-[2-(oxetan-3-yloxy)phenyl]pyridin-3-yl}cyclopropoxy)methyl]phenyl}butyl)-3-[(2S,3R,4R,5R)-2,3,4,5,6-pentahydroxyhexyl]urea]", "EC50": "< 100"}
{"smiles": "Cc1ccc(CCCCCNC(=O)NC[C@H](O)[C@@H](O)[C@H](O)[C@H](O)CO)nc1CNC1(c2cnccc2-c2ccccc2OC2CC2)CC1", "note": "[Compound I-707]", "EC50": "1260 to 10000"}
{"smiles": "CN(C[C@H](O)[C@@H](O)[C@H](O)[C@H](O)CO)C(=O)NC1CCN(C(=O)CCCCc2cc(Cl)c(COC3(c4cnccc4-c4ccccc4OC4CC4)CC3)cc2Cl)CC1", "note": "(stereo in doubt) [Compound I-159, 1-(1-{5-[2,5-dichloro-4-({1-[4-(2-cyclopropoxyphenyl)pyridin-3-yl]cyclopropoxy}methyl)phenyl]pentanoyl}piperidin-4-yl)-3-methyl-3-[(2S,3R,4R,5R)-2,3,4,5,6-pentahydroxyhexyl]urea]", "EC50": "< 100"}
{"smiles": "Cc1ccc(SCCCN(CCCCO)C(=O)[C@@H](O)[C@@H](O)[C@H](O)[C@@H](O)CO)cc1CNC1(c2cnccc2-c2ccccc2OC2CC2)CC1", "note": "[Compound I-546, (2S,3S,4R,5S)-N-[3-({3-[({1-[4-(2-cyclopropoxyphenyl)pyridin-3-yl]cyclopropyl}amino)methyl]-4-methylphenyl}sulfanyl)propyl]-2,3,4,5,6-pentahydroxy-N-(4-hydroxybutyl) hexanamide]", "EC50": "126 to 1000"}
{"smiles": "CS(=O)(=O)NCCCCN(CCCCSc1ccc(Cl)c(COC2(c3cnccc3-c3ccccc3OC3CC3)CC2)c1)C(=O)[C@@H](O)[C@@H](O)[C@H](O)[C@@H](O)CO", "note": "[Compound I-570, (2S,3S,4R,5S)-N-(4-{[4-chloro-3-({1-[4-(2-cyclopropoxyphenyl)pyridin-3-yl]cyclopropoxy}methyl)phenyl]sulfanyl}butyl)-2,3,4,5,6-pentahydroxy-N-(4-methanesulfonamidobutyl) hexanamide]", "EC50": "< 100"}
{"smiles": "O=C(NCC1CCCN(S(=O)(=O)c2ccc(Cl)c(COC3(c4cnccc4-c4ccccc4OC4CC4)CC3)c2)C1)NC[C@H](O)[C@@H](O)[C@H](O)[C@H](O)CO", "note": "(stereo in doubt) [Compound I-426, 1-({1-[4-chloro-3-({1-[4-(2-cyclopropoxyphenyl)pyridin-3-yl]cyclopropoxy}methyl)benzenesulfonyl]piperidin-3-yl}methyl)-3-[(2S,3R,4R,5R)-2,3,4,5,6-pentahydroxyhexyl]urea]", "EC50": "< 100"}
{"smiles": "Clc1ccc(Cl)c(CNC2(c3cnccc3-c3ccccc3OC3CCC3)CC2)c1", "note": "[Compound I-5, 1-[4-(2-cyclobutoxyphenyl)pyridin-3-yl]-N-[(2,5-dichlorophenyl)methyl]cyclopropan-1-amine]", "EC50": "126 to 1000"}
